We go through eleven compounds from ChEMBL document CHEMBL1130514, “Design and synthesis of conformationally constrained arginal thrombin inhibitors” (Bioorg Med Chem Lett, 1997).

Structures are written as SMILES. Where a SMILES comes first, the peptide text is derived from it. [ ]: non-standard residue; d: D form. The star is where a group is joined. dNMePhg = CN[C@@H](C(=O)O)c1ccccc1; PhAc = O=C(Cc1ccccc1)*

The target in one assay is Plasminogen (Homo sapiens, UniProt P00747). Kind of assay: In vitro ability to inhibit the activity of Plasmin.
Chain of Plasminogen (P00747 97-580 limits assumed): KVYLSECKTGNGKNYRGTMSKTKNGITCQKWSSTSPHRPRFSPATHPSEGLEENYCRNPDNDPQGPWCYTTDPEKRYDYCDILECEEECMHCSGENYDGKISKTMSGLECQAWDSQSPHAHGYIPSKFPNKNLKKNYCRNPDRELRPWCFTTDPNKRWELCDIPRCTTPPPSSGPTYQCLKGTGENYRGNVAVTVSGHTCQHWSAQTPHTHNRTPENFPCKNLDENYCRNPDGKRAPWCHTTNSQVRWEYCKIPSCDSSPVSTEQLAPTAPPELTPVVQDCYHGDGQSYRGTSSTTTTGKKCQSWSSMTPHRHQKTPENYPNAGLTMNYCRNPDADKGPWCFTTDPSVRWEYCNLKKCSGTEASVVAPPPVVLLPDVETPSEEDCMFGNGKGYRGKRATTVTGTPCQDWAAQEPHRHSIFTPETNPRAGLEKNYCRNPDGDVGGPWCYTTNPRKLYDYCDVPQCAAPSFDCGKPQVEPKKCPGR
Chain of Plasminogen (P00747 581-810 limits assumed): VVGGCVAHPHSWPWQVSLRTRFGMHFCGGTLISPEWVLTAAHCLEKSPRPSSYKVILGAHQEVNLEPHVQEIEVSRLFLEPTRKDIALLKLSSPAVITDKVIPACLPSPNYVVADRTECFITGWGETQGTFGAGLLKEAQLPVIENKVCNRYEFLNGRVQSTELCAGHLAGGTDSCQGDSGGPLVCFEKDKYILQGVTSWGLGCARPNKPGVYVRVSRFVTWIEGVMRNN
The target in the next assay is T1, Serine protease 1 (Bos taurus, UniProt P00760).
T1 sequence (P00760 whole entry): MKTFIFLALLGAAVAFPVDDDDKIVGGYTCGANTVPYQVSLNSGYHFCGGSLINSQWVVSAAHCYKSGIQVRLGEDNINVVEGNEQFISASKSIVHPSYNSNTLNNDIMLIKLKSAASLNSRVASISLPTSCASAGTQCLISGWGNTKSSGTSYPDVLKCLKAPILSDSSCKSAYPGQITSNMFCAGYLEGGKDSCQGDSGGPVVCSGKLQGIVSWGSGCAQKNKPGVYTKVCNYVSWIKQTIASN
The assay is described as follows: In vitro ability to inhibit the activity of Trypsin.

The next assay concerns the target Prothrombin (Homo sapiens, UniProt P00734). Kind of assay: In vitro ability to inhibit the activity of human alpha Thrombin.

The term IC50 denotes the midpoint of a concentration-inhibition curve. A lower IC50 goes with higher potency. Take `CN[C@H](Cc1ccccc1)C(=O)N1CCC[C@H]1C(=O)N[C@H](C=O)CCCN=C(N)N`: the IC50 came out at 0.5 µM at Plasminogen and 0.02 µM against Serine protease 1.
Consider `CC(=O)N[C@@]1(Cc2ccccc2)CC[C@H]2CC[C@@H](C(=O)N[C@H]3CCCN(C(=N)N)C3O)N2C1=O` (stereo partly specified), for which the IC50 against Prothrombin was 3.9 µM.
Turning to `CC1CNc2c(cccc2S(=O)(=O)N[C@H]2CCC[C@H]3CC[C@@H](C(=O)N[C@H]4CCCN(C(=N)N)C4O)N3C2=O)C1` (stereo partly specified), the values for the IC50 at Plasminogen, against Prothrombin and at Serine protease 1 were 1.04 µM, 0.018 µM and 0.1 µM, respectively.
On Prothrombin, `N=C(N)N1CCC[C@H](NC(=O)[C@@H]2CC[C@@H]3CCC(Cc4ccccc4)C(=O)N32)C1O` (stereo partly specified) registered an IC50 of 4.6 µM.
As for `N=C(N)N1CCC[C@H](NC(=O)[C@@H]2CC[C@@H]3CCC[C@H](NS(=O)(=O)Cc4ccccc4)C(=O)N32)C1O` (stereo partly specified), the IC50 was 10 µM at Plasminogen and 0.11 µM against Prothrombin.
As for `CC(=O)N[C@H]1CCC[C@H]2CC[C@@H](C(=O)N[C@H]3CCCN(C(=N)N)C3O)N2C1=O` (stereo partly specified), the concentration for half-maximal inhibition (IC50) was 74 µM on Plasminogen, 4.3 µM at Prothrombin and 24 µM on Serine protease 1.
Consider `N=C(N)N1CCC[C@H](NC(=O)[C@@H]2CC[C@@H]3CCC[C@H](NS(=O)(=O)c4cccc5ccccc45)C(=O)N32)C1O` (stereo partly specified), for which the IC50 came out at 10 µM against Plasminogen and 0.11 µM against Prothrombin.
In the case of `N=C(N)N1CCC[C@H](NC(=O)[C@@H]2CC[C@@H]3CCCC(Cc4ccccc4)C(=O)N32)C1O` (stereo partly specified), the IC50 on Prothrombin turned out to be 1.4 µM.
On the same count and under the same terms, the result for `CN[C@@H](C(=O)N1CCC[C@H]1C(=O)N[C@H](C=O)CCCNC(=N)N)c1ccccc1` (H-[dNMePhg]-Pro-Arg-aldehyde) reads 0.026 µM.
For the compound `N=C(N)NCCC[C@@H](C=O)NC(=O)[C@@H]1CCCN1C(=O)Cc1ccccc1` (PhAc-Pro-Arg-aldehyde), the IC50 against Plasminogen stood at 41 µM; on Prothrombin it was 1.6 µM; against Serine protease 1, 7.2 µM.
As for `CC1CNc2c(cccc2S(=O)(=O)N[C@@H](CCCNC(=N)N)C(=O)N2CCC(C)C[C@@H]2C(=O)O)C1` (single isomer, unassigned) [ARGATROBAN], the IC50 was determined as 800 µM against Plasminogen and 5 µM against Serine protease 1.
